Assay results as given in PMC7355942, “Cytotoxicity Evaluation of Novel bis(2-aminoethyl)amine Derivatives” (Molecules, 2020).

Columns and labels:
[1] = test system: CaCo-2 cells (colorectal adenocarcinoma); experiment: MTT cytotoxicity assay, CaCo-2; assay type: cell-based, human; conditions: for IC50: Homo sapiens, CaCo-2, MTT, mean ± SD; for SI (Selectivity Index): IC50 for normal cell line (HaCaT)/IC50 CaCo-2
Excerpt: (§1) All derivatives of bis(2-aminoethyl)amine were screened for their in vitro cytotoxic activity against a panel of human cancer cell lines, namely colorectal adenocarcinoma (CaCo-2), epithelial lung carcinoma (A549), and melanoma (HTB-140), which is contrary to normal (HaCaT) cell lines, by using the MTT method.
(§2) Description related to conducted biological studies including cell culture, suitable conditions, and methodology was presented in our previous paper.

[2] = test system: A549 cells (epithelial lung carcinoma); experiment: MTT cytotoxicity assay, A549; assay type: cell-based, human; conditions: for IC50: A549, MTT, mean ± SD; for SI (Selectivity Index): IC50 for normal cell line (HaCaT)/IC50 A549
Excerpt: as §1, §2

HTB-140 cells (melanoma) = experiment: MTT cytotoxicity assay, HTB-140; assay type: cell-based, human; conditions: for IC50: HTB-140, MTT, mean ± SD; for SI (Selectivity Index): IC50 for normal cell line (HaCaT)/IC50 HTB-140
Excerpt: as §1, §2

[3] = test system: HaCaT cells (immortal keratinocytes); experiment: MTT cytotoxicity assay, HaCaT normal cells; assay type: cell-based, human; conditions: mean ± SD
Excerpt: as §1, §2

A549 cells = experiment: Apoptosis, Annexin V-FITC/7-AAD flow cytometry, A549; assay type: cell-based, human; conditions: A549, IC50 concentration, 72 h
Method: (§3) To establish in vitro, the anti-proliferative mechanism of activity, the influence of bis(2-aminoethyl)amine derivatives on early and late apoptosis was performed, using flow cytometry analysis (Figure 7).
as §2
(§4) Figure 7 The effect of derivatives 3–6 on early and late apoptosis, or necrosis in HaCaT, CaCo-2, A549, and HTB-140 cells. Cells were incubated for 72 h with tested compounds and used in their IC50 concentrations. Then cells were harvested, stained with Annexin V-FITC and 7-AAD, and analyzed using flow cytometry. Data are expressed as the percentage of cells at an early stage of apoptosis or late stage of apoptosis or necrosis. Data are given as means ± SD, *** p ≤ 0.001, ** p ≤ 0.01, as compared to the control.
Figure 8 The effect of compounds 3–6 on early and late apoptosis or necrosis in A549 cells, detected with Annexin V-FITC/7-AAD by flow cytometry. […] The upper right and upper left quadrants represent the late stage of apoptotic or necrotic cells (Annexin V-FITC positive, 7-AAD positive, Annexin V-FITC negative and 7-AAD positive staining, respectively). The lower left quadrant represents unstained A549 cells (Annexin V-FITC negative, 7-AAD negative). TEXT PRINTED IN THE PICTURE: 3: 0,1; 26,6; 36,9; 36,5 | 4: 0,1; 23,4; 47,2; 29,3 | 5: 0,2; 42,5; 28,4; 28,9 | 6: 0,2; 37,6; 19,5; 42,7 DOUBTS OF THE COPYIST ABOUT THIS PICTURE: 3, lower left quadrant value: 36,9, printed over the dot cloud, so the digits 6 and 9 are not fully certain / 6, lower left quadrant value: 19,5, partly printed over the dot cloud, so the digits 9 and 5 are not fully certain / The quadrant numbers are printed with no measure or unit. They are listed in the order upper left, upper right, lower left, lower right / The Control plot (0,1; 5,2; 87,4; 7,3) was left out because it is not a substance

CaCo-2 cells = experiment: Apoptosis, Annexin V-FITC/7-AAD flow cytometry, CaCo-2; assay type: cell-based, human; conditions: CaCo-2, IC50 concentration, 72 h
Method: as §3, §2, §4

[4] = test system: panel of human cancer cell lines (CaCo-2, A549, HTB-140) and normal HaCaT cells; experiment: MTT cytotoxicity assay, statements over the whole cell panel; assay type: cell-based; conditions: for IC50: Homo sapiens, all cancer cell lines (CaCo-2, A549, HTB-140), read-out: IC50, range over cancer cell lines; for antiproliferative / cytotoxic activity in words: chosen cancer and normal cell lines
Excerpt: as §1, §2

[5] = test system: HaCaT cells (normal keratinocytes); experiment: Lactate dehydrogenase (LDH) release assay, HaCaT; assay type: cell-based, human; conditions: 72 h
Method: (§5) Lactate dehydrogenase assay (LDH) as a marker of cell death was evaluated for synthesized ethylthioureas 1–7. The compounds were tested at concentrations of 10, 50, and 100 µM. At the lowest dose, no activity was observed.
as §2
(§6) Figure 6 LDH release as a marker of a cell death in the HaCaT, HTB-140, CaCo-2, A549 cells, treated for 72 h with various concentrations of derivatives 3–6 (100 µM for compounds 3–5, 100 and 50 µM for 6). Data are expressed as the mean ± SD from three independent experiments, performed in triplicate. *** p ≤ 0.001, ** p ≤ 0.01, as compared to the control.

[6] = test system: HaCaT, HTB-140, CaCo-2, A549 cells; experiment: Lactate dehydrogenase (LDH) release assay, statements over several cell lines; assay type: cell-based, human; conditions: pathological cell lines (HTB-140, CaCo-2, A549), 50 µM, 72 h
Method: as §5, §2, §6

[7] = test system: interleukin-6 (IL-6) secretion, HTB-140 cells; experiment: Interleukin-6 assay (ELISA), HTB-140; assay type: cell-based, human; conditions: HTB-140, IC50 dose
Excerpt: (§7) The mechanism of cytotoxic action of bis(2-aminoethyl)-amine derivatives can be associated with reducing interleukin-6 (IL-6) levels, which include the strong pro-inflammatory particles.
as §2
(§8) Figure 9 Effects of compounds 3–6 on IL-6 levels, measured by the ELISA test. Data are expressed as the mean ± SD from three independent experiments, performed in triplicate. *** p ≤ 0.001, ** p ≤ 0.01, * p ≤ 0.05, as compared to the control.

HTB-140 cells = experiment: Apoptosis, Annexin V-FITC/7-AAD flow cytometry, HTB-140; assay type: cell-based, human; conditions: HTB-140, IC50 concentration, 72 h
Method: as §3, §2, §4

[8] = test system: interleukin-6 (IL-6) release, A549 cells; experiment: Interleukin-6 assay (ELISA), A549; assay type: cell-based, human; conditions: A549, IC50 dose
Excerpt: as §7, §2, §8

SMILES | IC50 [1] [µM] | SI (Selectivity Index) [1] | IC50 ([2]; Homo sapiens) [µM] | SI (Selectivity Index) [2] | IC50 (HTB-140 cells (melanoma); Homo sapiens) [µM] | SI (Selectivity Index) (HTB-140 cells (melanoma)) | IC50 ([3]; Homo sapiens) [µM] | late apoptosis (A549 cells) [%] | antiproliferative / cytotoxic activity in words [4] | also measured
Fc1ccc(NC(=S)NCCN(CCNC(=S)Nc2ccc(F)c(Cl)c2)C(=S)Nc2ccc(F)c(Cl)c2)cc1Cl [Compound 5, 3-(3-chloro-4-fluorophenyl)-1,1-bis{2-[3-(3-chloro-4-fluorophenyl)thioureido]ethyl}thiourea] | 17.9 ± 2.8 | 1.05 | 15.4 ± 2.1 | 1.21 | 14.8 ± 3.2 | 1.27 | 18.8 ± 4.3 | 42.7 |  | late apoptosis (CaCo-2 cells): 32.8%
S=C(NCCc1ccccc1)NCCN(CCNC(=S)NCCc1ccccc1)C(=S)NCCc1ccccc1 [Compound 6, 3-phenethyl-1,1-bis[2-(3-phenethylthioureido)ethyl]thiourea] | 15.7 ± 1.7 | 1.02 | 15 ± 1.7 | 1.08 | 14 ± 2.5 | 1.16 | 16.1 ± 5.7 | 37.8 |  | IC50 [4]: 14 to 15.7 µM; LDH release ([5]; 50 µM): 8.3%; LDH release ([5]; 100 µM): 17.9%; LDH secretion [6]: 8.09–10.4%; early apoptosis (CaCo-2 cells): 55.7%; inhibition of IL-6 secretion, in words [7]: two-fold
S=C(NCCN(CCNC(=S)Nc1ccc(Br)cc1)C(=S)Nc1ccc(Br)cc1)Nc1ccc(Br)cc1 [Compound 4, 3-(4-bromophenyl)-1,1-bis{2-[3-(4-bromophenyl)thioureido]ethyl}thiourea] | 17.2 ± 1.9 | 1.12 | 16.8 ± 1.9 | 1.15 | 14.7 ± 1.5 | 1.35 | 19.3 ± 3.5 | 26.7 |  | early apoptosis (HTB-140 cells): 28.6%; inhibition of interleukin release as compared to the control, in words [8]: tenfold
N.N.[Cl][Pt][Cl] [Cisplatin, reference compound] |  |  |  |  |  |  |  |  |  | IC50 [2]: 1.95 ± 0.83 µM; IC50 (HTB-140 cells (melanoma)): 1.13 ± 0.19 µM; IC50 [3]: 2.84 ± 1.06 µM
COc1ccc(NC(=S)NCCN(CCNC(=S)Nc2ccc(OC)cc2)C(=S)Nc2ccc(OC)cc2)cc1 [Compound 1, 3-(4-methoxyphenyl)-1,1-bis{2-[3-(4-methoxyphenyl)-thioureido]ethyl}thiourea] | > 100 |  | > 100 |  | > 100 |  | > 100 |  | biologically inactive | 
S=C(NCCN(CCNC(=S)Nc1ccccc1)C(=S)Nc1ccccc1)Nc1ccccc1 [Compound 2, 3-phenyl-1,1-bis[2-(3-phenylthioureido)ethyl]thiourea] | > 100 |  | > 100 |  | > 100 |  | > 100 |  | biologically inactive | 
S=C(NCCN(CCNC(=S)Nc1ccc(Cl)cc1)C(=S)Nc1ccc(Cl)cc1)Nc1ccc(Cl)cc1 [Compound 3, 3-(4-chlorophenyl)-1,1-bis{2-[3-(4-chlorophenyl)thioureido]ethyl}thiourea] | 27.7 ± 3.7 | 1.08 | 25 ± 2.4 | 1.19 | 22.6 ± 2 | 1.32 | 29.9 ± 1.8 | 23.5 |  | IC50 [4]: 22.6 to 27.7 µM; LDH release ([5]; 100 µM): 13.8%; decrease of the IL-6 concentration ([8]; versus control): 1.7 times
COc1cccc2c1C(=O)c1c(O)c3c(c(O)c1C2=O)C[C@@](O)(C(=O)CO)C[C@@H]3O[C@H]1C[C@H](N)[C@H](O)[C@H](C)O1 [Doxorubicin, reference compound] | 0.53 ± 0.23 | 2.06 | 0.63 ± 0.21 | 1.73 | 0.47 ± 0.18 | 2.32 | 1.09 ± 0.23 |  |  | 
COc1ccc(NC(=S)N(CCNc2nnnn2-c2ccc(OC)cc2)CCNc2nnnn2-c2ccc(OC)cc2)cc1 [Compound 7, 3-(4-methoxyphenyl)-1,1-bis(2-{[1-(4-methoxyphenyl)-1H-tetrazol-5-yl]amino}ethyl)thiourea] | > 100 |  | > 100 |  | > 100 |  | > 100 |  | biologically inactive | 
